Literature values in patent US20230039272A1, “COMPOSITION FOR IMPROVED ENERGY, FOCUS AND CLARITY” (Gwella Mushrooms Inc., priority 2021, published 2023).
Residues, ends and D or L forms follow the SMILES beside them. *: point of attachment. PhAc = O=C(Cc1ccccc1)*

Experiments:
[1] = patients with mild to moderate dementia
[2] = high doses for long periods of time

For `CCOC(=O)CNC(=O)[C@@H]1CCCN1C(=O)Cc1ccccc1` [N-phenylacetyl-L-prolylglycine ethyl ester] (PhAc-Pro-Gly-OEt), the cognition restoring effect (Amyloid Beta exposure; animal models of Alzheimer's Disease, preliminary studies) is listed as “cognition restoring effect” and the “neuroprotective effect (cell viability, calcium homeostasis, Reactive Oxygen Species levels, mitochondrial function, tau phosphorylation, neurite outgrowth)” value (Amyloid Beta exposure; impairments caused by Amyloid Beta exposure) is listed as “neuroprotective effect”.
In the case of `NC(=O)CN1CC(O)CC1=O` (stereo not shown) [Oxiracetam], the “quality of life scale” value [1] is given as “improved quality of life scale”, the “test scores on logical performance, attention, concentration, memory and spatial orientation” value [1] is given as “higher test scores” and the safety [2] is given as “save, even at high doses for long periods of time”. The “step-down retention performance and acquisition performance in active-avoidance situations” value (in vivo) was “improve step-down retention performance and acquisition performance” and the learning of animals (pre-clinical studies) was “improve learning of animals”.
